“Also recorded” adds a separate entry of the source.
Key:
Assay in all cases: Automodification reaction, ADP-ribose Western blot / in-gel fluorescence after click to azido-rhodamine
Assay type in all cases: biochemical
Settings in all cases: FIG. 5I
asPARP-1 (PARP-1 L877A) = biological target: T1, asPARP-1 (PARP-1 L877A) (Mus musculus, UniProt P11103, L876A)
T1 construct: relative to un-shifted full length PARP-1 measured by densitometry of anti-PARP-1 western blots; made in house; host or cells: Sf9 insect cells (baculovirus)
Procedure: (§1) In vitro automodification reactions. 200 ng PARP Protein was incubated in Automodification Buffer (30 mM HEPES, pH 8.0, 5 mM MgCl2, 5 mM CaCl2, 0.01% NP-40, 1 mM DTT, 100 ng/mL sonicated salmon sperm DNA (Stratagene), 100 ng/mL BSA (SIGMA)) with NAD^+ or NAD^+ analogs as indicated at 25° C. for 5 (PARP-1 and PARP2) or 30 minutes (PARP3) for Sf9-purified proteins and for 45 minutes for bacterially purified enzymes.
(§2) Reactions were stopped by addition of ⅓ reaction volume with 4×SDS-PAGE Loading Buffer (200 mM Tris, pH 6.8, 8% SDS, 40% Glycerol, 4% β-mercaptoethanol, 50 mM EDTA, 0.08% Bromophenol Blue) followed by boiling at 100° C. for 5 minutes. Reaction products in 1×SDS-PAGE buffer were then resolved on a 10% SDS-PAGE gel, transferred to a nitrocellulose membrane and blotted with a polyclonal antibody against PARP-1 or with an antibody-like detection reagent against ADP-ribose (MABE1016, Millipore). Relative quantitation of PARP-1 automodifications was performed by the ratio of PARylation-induced […] in SDS-PAGE mobility relative to un-shifted full length PARP-1 measured by densitometry of anti-PARP-1 western blots.
(§3) Reactions were stopped by methanol:chloroform precipitation (Wessel and Flugge, 1984). The protein pellets were clicked to azido-Rhodamine (Click Chemistry Tools) in Denaturing CC Buffer (100 mM HEPES, pH 8, 4 M Urea, 0.5 M NaCl, 2% CHAPS, 10 μM azido-Rhodamine, 1 mM THPTA (Click Chemistry Tools), 5 mM CuSO4, 5 mM Sodium Ascorbate) with Azido-Rhodamine, THPTA:CuSO4 complex, and Sodium Ascorbate each added sequentially in written order. […]
(§4) The automodification reactions were stopped by the addition of one third of a reaction volume of 4×SDS-PAGE Loading Buffer (200 mM Tris.HCl, pH 6.8, 8% SDS, 40% glycerol, 4% 3-mercaptoethanol, 50 mM EDTA, 0.08% bromophenol blue) followed by heating to 100° C. for 5 min. […] Relative quantification of PARP-1 automodification was performed using densitometry and was expressed as the ratio of the PARylation-induced decrease in PARP-1 mobility relative to non-shifted PARP-1. […]

asPARP-2 (L443A) = biological target: T2, asPARP-2 (L443A) (Homo sapiens, UniProt Q9UGN5, L443A)
T2 construct: made in house; host or cells: Sf9 insect cells (baculovirus)
Procedure: as §1, §2, §3, §4

asPARP-3 (L394A) = biological target: T3, asPARP-3 (L394A) (Mus musculus, UniProt Q3ULW8, L399A)
T3 construct: made in house; host or cells: Sf9 insect cells (baculovirus)
T3 sequence (Q3ULW8 1-528 isoform Q3ULW8-2 L394A): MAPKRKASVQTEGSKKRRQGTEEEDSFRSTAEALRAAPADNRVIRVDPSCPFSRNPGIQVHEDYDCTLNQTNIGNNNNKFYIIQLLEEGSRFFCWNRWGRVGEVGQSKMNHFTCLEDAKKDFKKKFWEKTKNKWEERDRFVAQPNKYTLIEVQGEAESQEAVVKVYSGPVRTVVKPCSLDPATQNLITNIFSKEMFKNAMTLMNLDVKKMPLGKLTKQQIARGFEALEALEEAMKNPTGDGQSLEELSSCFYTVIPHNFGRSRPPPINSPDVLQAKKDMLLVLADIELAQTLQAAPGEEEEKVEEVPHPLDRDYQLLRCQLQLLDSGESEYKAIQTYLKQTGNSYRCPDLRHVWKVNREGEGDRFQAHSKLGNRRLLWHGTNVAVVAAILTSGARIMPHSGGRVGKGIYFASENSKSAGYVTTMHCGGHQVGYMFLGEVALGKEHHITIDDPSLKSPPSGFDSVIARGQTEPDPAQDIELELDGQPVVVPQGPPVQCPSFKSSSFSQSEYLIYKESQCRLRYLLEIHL
Procedure: as §1, §2, §3, §4

T2 sequence (Q9UGN5 whole entry L443A): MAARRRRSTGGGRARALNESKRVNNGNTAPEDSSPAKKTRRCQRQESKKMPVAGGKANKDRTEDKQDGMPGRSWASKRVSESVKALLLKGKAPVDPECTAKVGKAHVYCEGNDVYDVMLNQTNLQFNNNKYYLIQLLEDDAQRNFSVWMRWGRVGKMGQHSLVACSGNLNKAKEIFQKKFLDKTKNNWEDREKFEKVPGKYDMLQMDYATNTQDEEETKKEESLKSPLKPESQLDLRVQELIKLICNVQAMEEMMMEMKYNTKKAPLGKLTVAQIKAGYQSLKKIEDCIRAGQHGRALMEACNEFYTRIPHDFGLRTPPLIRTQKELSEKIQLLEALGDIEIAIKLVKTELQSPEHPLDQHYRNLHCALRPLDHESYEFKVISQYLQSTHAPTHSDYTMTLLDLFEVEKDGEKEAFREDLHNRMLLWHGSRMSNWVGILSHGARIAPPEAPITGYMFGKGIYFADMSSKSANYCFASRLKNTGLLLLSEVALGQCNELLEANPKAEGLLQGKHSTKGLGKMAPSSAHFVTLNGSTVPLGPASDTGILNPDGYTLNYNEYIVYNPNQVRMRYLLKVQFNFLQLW
T1 sequence (P11103 whole entry L876A): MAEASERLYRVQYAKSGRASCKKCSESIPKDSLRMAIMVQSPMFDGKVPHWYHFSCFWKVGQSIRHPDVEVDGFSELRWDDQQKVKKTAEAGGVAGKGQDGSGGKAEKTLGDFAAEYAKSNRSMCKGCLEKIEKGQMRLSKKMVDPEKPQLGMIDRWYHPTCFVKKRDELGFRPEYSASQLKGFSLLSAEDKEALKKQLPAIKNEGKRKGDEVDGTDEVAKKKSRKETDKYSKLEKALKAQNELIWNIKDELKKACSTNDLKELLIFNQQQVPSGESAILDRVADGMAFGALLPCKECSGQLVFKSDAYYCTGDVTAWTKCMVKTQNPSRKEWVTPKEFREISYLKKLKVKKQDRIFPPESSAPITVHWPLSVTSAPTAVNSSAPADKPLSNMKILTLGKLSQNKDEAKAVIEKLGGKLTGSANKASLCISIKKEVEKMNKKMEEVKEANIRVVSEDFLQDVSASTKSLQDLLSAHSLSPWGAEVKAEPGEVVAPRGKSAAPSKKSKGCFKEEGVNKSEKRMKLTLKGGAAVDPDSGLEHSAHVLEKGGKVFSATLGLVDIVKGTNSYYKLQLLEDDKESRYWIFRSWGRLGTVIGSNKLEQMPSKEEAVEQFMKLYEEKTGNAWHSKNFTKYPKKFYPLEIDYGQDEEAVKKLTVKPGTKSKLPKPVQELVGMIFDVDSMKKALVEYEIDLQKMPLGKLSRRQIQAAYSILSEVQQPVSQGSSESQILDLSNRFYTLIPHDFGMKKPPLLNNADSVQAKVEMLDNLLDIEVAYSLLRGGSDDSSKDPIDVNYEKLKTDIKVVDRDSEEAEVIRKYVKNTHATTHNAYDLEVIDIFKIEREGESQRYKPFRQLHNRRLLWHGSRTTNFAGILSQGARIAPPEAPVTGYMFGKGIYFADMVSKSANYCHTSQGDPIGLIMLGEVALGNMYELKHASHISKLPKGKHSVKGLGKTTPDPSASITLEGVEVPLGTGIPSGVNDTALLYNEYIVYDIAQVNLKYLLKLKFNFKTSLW

SMILES: C#CCCSc1nc2c(N)ncnc2n1[C@@H]1O[C@H](COP(=O)(O)OP(=O)(O)OC[C@H]2O[C@@H]([n+]3cccc(C(N)=O)c3)C(O)C2O)[C@H](O)C1O (stereo partly drawn) [8-Bu(3-yne)T-NAD^+]
- catalytic activity of asPARP-1 with the NAD analog (asPARP-1 (PARP-1 L877A)): catalytically active
- catalytic activity of asPARP-2 with the NAD analog (asPARP-2 (L443A)): catalytically active; also recorded: supports activity
- catalytic activity of asPARP-3 with the NAD analog (asPARP-3 (L394A)): catalytically active; also recorded: supports activity
